Reference: patent publication US5559132A, “Carboxamide derivatives for treating asthma” (Zeneca Limited, priority 1993, dated 1996)

Target: T1, guinea pig trachea (NKA or [β-ala8]-NKA(4-10) as agonist) (Cavia porcellus, UniProt Q64077)
T1 construct: The trachea are removed, trimmed of excess tissue and divided into two segments; from tissue; host or cells: guinea pig trachea rings (male animals)
T1 sequence (Q64077 1-402): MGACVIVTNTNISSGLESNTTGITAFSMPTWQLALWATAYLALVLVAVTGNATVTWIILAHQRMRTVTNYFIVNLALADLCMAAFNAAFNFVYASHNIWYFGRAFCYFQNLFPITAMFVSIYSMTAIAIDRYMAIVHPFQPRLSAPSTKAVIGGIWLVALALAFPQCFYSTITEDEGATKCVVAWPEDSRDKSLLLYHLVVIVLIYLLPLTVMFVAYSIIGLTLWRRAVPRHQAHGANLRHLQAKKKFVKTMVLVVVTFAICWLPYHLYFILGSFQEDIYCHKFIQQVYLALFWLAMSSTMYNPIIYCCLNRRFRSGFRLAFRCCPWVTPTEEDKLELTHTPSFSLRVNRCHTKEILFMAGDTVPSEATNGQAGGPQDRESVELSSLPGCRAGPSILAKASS
Assay: Guinea Pig Assay (Test B): antagonism of NKA or [β-ala8]-NKA(4-10) contraction in guinea pig trachea
Conditions: -log molar KB
Procedure: In the test described below either NKA or [β-ala^8 ]-NKA(4-10) is used as an agonist. The chosen agonist is refered to as AG throughout the description.
Male guinea pigs are killed by a sharp blow to the back of the head. The trachea are removed, trimmed of excess tissue and divided into two segments. […] Initial tension placed on each tissue is 1 g, which is maintained throughout a 0.5 to 1.5 hour equilibration period before addition of other drugs. Contractile responses are measured on a Grass polygraph via Grass FT-03 force transducers.
Tissues are challenged repetitively with a single concentration of AG (10 nM) with intervening 30 min periods with washing to allow the tension to return to baseline levels. […] Percent inhibition is determined when a Compound produces a statistically significant (p<0.05) reduction of the contraction and is calculated using the second contractile response as 100%.
Potencies of selected Compounds are evaluated by calculating apparent dissociation constants (KB) for each concentration tested using the standard equation: […]
where dose ratio=antilog[(AG -log molar EC50 without Compound)--(AG -log molar EC50 with Compound)]. The KB values may be converted to the negative logarithms and expressed as -log molar KB (i.e. pKB). […] The EC50 values are converted to the negative logarithms and expressed as -log molar EC50. […]

CC(=O)N(C1CCCCC1)C1CCN(CCC(CN(C)C(=O)c2ccccc2)c2ccc(Cl)c(Cl)c2)CC1 (stereo not shown) [Example 4, N-[4-[4-(N-Cyclohexylacetamido)piperidino]-2-(3,4-dichlorophenyl)butyl]-N-methylbenzamide]
Kb: 20 nM
